# Experimental data: patent publication US20260365677A1, “NEW CONTRAST AGENTS FOR USE IN DIAGNOSTIC IMAGING” (Bayer Aktiengesellschaft, priority 2022, published 2026)
# Assays:
# OATP1B1 = molecular target: T1, OATP1B1 (Homo sapiens, UniProt Q9Y6L6); test: Uptake into stable transfected OATP1B1 HEK 293 cells; format: cell-based; settings: 100 μM, 40 min, relative to RC1 (Gd-EOB-DTPA)
# T1 construct: expressed in transfected cells
# T1 sequence (Q9Y6L6 1-691): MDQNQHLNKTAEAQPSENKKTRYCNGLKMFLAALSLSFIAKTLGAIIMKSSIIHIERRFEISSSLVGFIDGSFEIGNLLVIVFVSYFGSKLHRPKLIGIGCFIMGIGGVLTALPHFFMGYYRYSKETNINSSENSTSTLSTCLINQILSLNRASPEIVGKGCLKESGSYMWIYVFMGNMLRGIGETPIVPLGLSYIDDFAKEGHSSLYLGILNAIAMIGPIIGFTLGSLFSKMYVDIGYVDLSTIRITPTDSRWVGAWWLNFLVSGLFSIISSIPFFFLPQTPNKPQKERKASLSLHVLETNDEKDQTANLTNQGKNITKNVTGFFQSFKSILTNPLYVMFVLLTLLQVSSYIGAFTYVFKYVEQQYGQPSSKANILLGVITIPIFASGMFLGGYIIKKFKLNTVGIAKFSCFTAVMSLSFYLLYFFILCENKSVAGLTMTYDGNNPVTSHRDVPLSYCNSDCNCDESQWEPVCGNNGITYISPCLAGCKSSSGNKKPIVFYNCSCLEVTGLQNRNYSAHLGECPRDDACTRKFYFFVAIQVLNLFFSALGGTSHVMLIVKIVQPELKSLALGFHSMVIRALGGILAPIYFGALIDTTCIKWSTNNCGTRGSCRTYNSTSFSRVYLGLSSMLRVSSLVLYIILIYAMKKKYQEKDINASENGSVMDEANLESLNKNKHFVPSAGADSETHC
# Protocol: Human stable transfected OATP1 B1 human embryonic kidney 293 cells (OATP1 B1 HEK 293, SLCO1B1, Entrez Gene ID: 10599) were used (Leonhardt M et al. Drug Metab Dispos. 2010 July; 38(7):1024-8). The following culture medium was used: 500 mL DMEM (Dulbecco's Modified Eagle Medium—high Glucose, D6429), 50 mL FCS (fetal bovine serum, Fa. Sigma, F7524), 5.8 mL G418 (Geneticin, Fa. Gibco 10131-027) and 5 mL Pen-Strep. (Penicillin-Streptomycin, Fa. Gibco, Ref 15140-122). Cryopreserved cells were shortly thawed in water bath and diluted in 10 mL warm culture medium (37 °C). After medium change the cells were grown for 3d in a 25 cm^2 cell culture flask. After 3 to 5d the cells were transferred into 75 cm^2 flasks. For the splitting the cells were incubated with 1.5 mL trypsin (Trypsin-EDTA (1×) 0.05%, Ref 25300-054 100 ml, Fa. Gibco) for 3-5 min in the incubator (37 °C, 5% CO2 and 95% oxygen). After centrifugation and washing with medium the cells were counted (50 μL cell suspension and 50 μL trypan blue (Trypan Blue Solution, 93595-50 ml, Fa. Fluka). Cells were cultured (1×10^5 cells/well) in poly-D-lysine coated 24-well plates (Fa. Corning, Ref: 354414) in 1.5 mL medium per well. After 48 h in the incubator the medium was changed and 1.5 mL/well sodium butyrate containing medium were added (40 mL culture medium plus 400 μL Na-Butyrate, Fa. Sigma Aldrich B5887-5G, 250 mg in 2.27 mL MilliQ water). After 24 h in the incubator the medium was vacuumed off and 1.5 mL transport buffer was added and incubated for 10 min. The transport buffer contains the following ingredients: 500 mL HBSS (Hank's balanced salt solution, Hyclone, SH30268.01), 5 mL HEPES buffer (4-(2-hydroxyethyl)-1-piperazine-ethanesulfonic acid, Gibco 15630-056) and 3.9 mL glucose (Sigma, G8270-100, 90 g/200 mL MilliQ water). All test items were prepared in transport buffer at a final concentration of 100 μM from stock solutions (180 to 500 mM concentration). The OATP1B1 HEK 293 cells were incubated with test solutions (test item in transport buffer 500 μL) for 40 min on a thermoshaker without shaking (PHMP, Fa. Grant Bio). Triplicates were performed for each test item. After incubation the cells were washed with 2 mL of cold PBS (+) buffer (Dulbeccos PBS+, Fa. Gibco). […] As a reference standard Gd-EOB-DTPA (gadoxetate) is used in the same well plate. The OATP1B1 HEK 293 uptake of the test compound is calculated relative to gadoxetate (resulting in the unit % of RC1).
# [1] = system: freshly isolated rat hepatocytes; test: Uptake into freshly isolated rat hepatocytes; format: cell-based; settings: 100 μmol Gd/L, 10 min, 37 °C, relative to RC1 (Gd-EOB-DTPA)
# Protocol: Triplicates were performed for each test item.
# [2] = Partition coefficient (log P butanol/buffer); format: physicochemical; settings: 50 mM Tris-HCl, pH 7.4, 10 μM, room temperature
# Protocol: The partition coefficient P (log P=log(Cbutanol/Cbuffer)) was determined in buffered aqueous solution (10 μM of compound in 0.5 mL 50 mM Tris-HCl saturated with Butanol, pH 7.4) and 1-butanol 1+1 and the mixture was shaken for 2 h at room temperature (n=3). The Gd-concentrations in each phase. CObutano, and Cbuffer were measured by ICP-MS (The Chemistry of Contrast Agents in Medical Magnetic Resonance Imaging” 2nd Ed. Merbach A S, Helm L, Toth E, eds. Hoboken, NJ: Wiley 2013).
# [3] = No-observed-adverse-effect level (NOAEL) in mice; settings: intravenous bolus injection
# [4] = Exploratory water solubility in 10 mM Tris-HCl buffer, pH 7.4; format: physicochemical; settings: aqueous buffer (10 mM Tris-HCl), 20 °C
# Protocol: The exploratory water solubility of the compounds is determined at room temperature (20 °C) in 0.5 mL buffer solution (10 mM Tris-HCl, pH 7.4) in the microcentrifuge tubes (Eppendorf, 2.0 mL safe-lock caps). The solid compounds were added stepwise to the buffer solution. More substance is added once all the suspended material is dissolved until an equilibrium between undissolved and dissolved substance is reached. The suspension was mixed using a shaker (Heidolph Reax 2000) and treated 5 min in an ultrasound bath (Bandelin, Sonorex Super RK255H). The Gadolinium concentration of the test substance in the clear solution is measured by ICP-MS.
smiles,measurement,setting,value
"CCOCCOc1ccc(C[C@H]2CN(CC(=O)[O-])CCN(CC(=O)[O-])CCN(CC(=O)O)CCN2CC(=O)[O-])cc1.[Gd+3] [Example 4, Gadolinium-2,2′,2″-{(2S)-10-(carboxymethyl)-2-[4-(2-ethoxyethoxy)benzyl]-1,4,7,10-tetraazacyclododecane-1,4,7-triyl}triacetate]",Uptake into OATP1B1-HEK 293 cells,OATP1B1,65 % of RC1
same,Uptake rat hepatocytes,[1],67 % of RC1
same,Log P,[2],−1.57
same,NOAEL,[3],2.50 mmol Gd/kg bw
same,Solubility,[4],>738 mM
